Assay results: the supplement of paper PMC5908809

Legend:
[1] = test system: normal NK cells expanded with K562-aAPC; assay: percent inhibition of viability; higher = more inhibition; details: 72 h, IL-2 2.5 ng/mL
Experimental: (§1)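 Drug sensitivity and resistance testing on K562-aAPC-expanded normal NK cells: 5 concentrations (10-fold steps over a 10,000-fold range), 72 h at 37 °C, viability by CellTiter-Glo normalised to DMSO and benzethonium chloride controls; DSS from the fitted curve.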

[2] = test system: normal NK cells expanded with K562-aAPC; assay: drug sensitivity score (DSS) (DSS units); higher = more sensitive; extreme values may be limits of the assay; details: 72 h; IL-2 2.5 ng/mL
Experimental: as §1

[3] = test system: normal primary NK cells, pool 1 (3 donors) (IL-2 2.5 ng/mL); assay: as above; details: 72 h
[4] = test system: NK-YS (IL-2 2.5 ng/mL); assay: as above; details: 72 h
[5] = test system: KAI3 (IL-2 2.5 ng/mL); assay: as above; details: 72 h
[6] = test system: normal primary NK cells, pool 1 (3 donors), resting (IL-2 0 ng/mL); assay: as above; details: 72 h
[7] = test system: normal primary NK cells, pool 2 (3 donors) (IL-2 2.5 ng/mL); assay: as above; details: 72 h
[8] = test system: SNK-6 (IL-2 2.5 ng/mL); assay: as above; details: 72 h
[9] = test system: DERL-7 (IL-2 2.5 ng/mL); assay: as above; details: 72 h
[10] = test system: normal primary NK cells, pool 3 (3 donors) (IL-2 2.5 ng/mL); assay: as above; details: 72 h
[11] = test system: IMC-1 (IL-2 20 ng/mL); assay: as above; details: 72 h
[12] = test system: NK-92 (IL-2 2.5 ng/mL); assay: as above; details: 72 h
[13] = test system: KHYG-1 (IL-2 2.5 ng/mL); assay: as above; details: 72 h
[14] = test system: YT (IL-2 2.5 ng/mL); assay: as above; details: 72 h
[15] = test system: NKL (IL-2 2.5 ng/mL); assay: as above; details: 72 h
[16] = test system: normal primary NK cells, pool 1 (3 donors) (IL-2 2.5 ng/mL); assay: percent inhibition of viability; higher = more inhibition; details: 72 h
[17] = test system: NK-YS (IL-2 2.5 ng/mL); assay: as above; details: 72 h
[18] = test system: KAI3 (IL-2 2.5 ng/mL); assay: as above; details: 72 h
[19] = test system: normal primary NK cells, pool 1 (3 donors), resting (IL-2 0 ng/mL); assay: as above; details: 72 h
[20] = test system: normal primary NK cells, pool 2 (3 donors) (IL-2 2.5 ng/mL); assay: as above; details: 72 h
[21] = test system: SNK-6 (IL-2 2.5 ng/mL); assay: as above; details: 72 h
[22] = test system: DERL-7 (IL-2 2.5 ng/mL); assay: as above; details: 72 h
[23] = test system: normal primary NK cells, pool 3 (3 donors) (IL-2 2.5 ng/mL); assay: as above; details: 72 h
[24] = test system: IMC-1 (IL-2 20 ng/mL); assay: as above; details: 72 h
[25] = test system: NK-92 (IL-2 2.5 ng/mL); assay: as above; details: 72 h
[26] = test system: KHYG-1 (IL-2 2.5 ng/mL); assay: as above; details: 72 h
[27] = test system: YT (IL-2 2.5 ng/mL); assay: as above; details: 72 h
[28] = test system: NKL (IL-2 2.5 ng/mL); assay: as above; details: 72 h

COc1cc(OC2CCN(C)CC2)ccc1Nc1ncc2c(n1)n(C1CCCC1)c(=O)n2C [AZ 3146] (max concentration tested 10000 nM)
percent inhibition of viability [%]
Details | 1 nM | 10 nM | 100 nM | 1000 nM | 10000 nM
[1] | -2.2 | 0.53 | -2.22 | 4.68 | 95.5
[16] | -2.73 | -14.2 | -10.5 | 0.05 | 89.1
[17] | 1 | 1.98 | 6.37 | 19 | 93.4
[18] | -6.95 | -0.01 | 1.16 | 23.6 | 97.9
[19] | 8.87 | -6.36 | 1.82 | 9.09 | 81.8
[20] | -14.1 | -0.67 | 12.1 | 6.73 | 74.2
[21] | 16.5 | 16.6 | 28.5 | 15.2 | 90
[22] | -4.12 | 4.05 | 2.89 | 9.9 | 98.6
[23] | -14.2 | 1.88 | 2.52 | 5.03 | 80
[24] | -1.3 | 2.72 | 8.86 | 9.14 | 100
[25] | 0.39 | -0.68 | 10.8 | -7.78 | 55.7
[26] | 3.47 | 1.13 | 9.55 | 13.1 | 104
[27] | 2.24 | 1.06 | 7.18 | 13.3 | 92.1
[28] | -14.9 | -7.34 | -5.85 | 12.7 | 92.9

Details | drug sensitivity score
[2] | 5.96
[3] | 4.98
[4] | 8.24
[5] | 9.06
[6] | 6.04
[7] | 5.18
[8] | 7.53
[9] | 7.08
[10] | 5.18
[11] | 7.02
[12] | 2.49
[13] | 7.83
[14] | 7.34
[15] | 7.26

CNC(=O)c1cc(COc2nnc(Nc3ccc(Cl)cc3)c3ccoc23)ccn1 [Telatinib] (max concentration tested 10000 nM)
percent inhibition of viability [%]
Details | 1 nM | 10 nM | 100 nM | 1000 nM | 10000 nM
[1] | -1.26 | -3.44 | 0.95 | 10.9 | 8.85
[16] | -11.3 | 3.32 | 6.19 | 3.83 | 4.17
[17] | -3.24 | -3.74 | 3.78 | 6.85 | 18
[18] | -1.15 | -3.17 | -1.98 | 4.4 | 17.6
[19] | -33.8 | -3.86 | 0.16 | -3.05 | 3.2
[20] | -8.51 | 7.4 | 6.24 | -6.6 | -0.18
[21] | -6.76 | -18.2 | -10.9 | -17.2 | 39.8
[22] | -7.49 | -0.52 | -1.32 | 7.55 | 16.5
[23] | -12.1 | 2.04 | 1.9 | -5.46 | -0.21
[24] | -1.29 | 6.77 | 10.7 | 6.73 | 6.92
[25] | -14.3 | 7.86 | 8.96 | 9.44 | 25.7
[26] | -4.25 | 1.6 | 0.07 | 3.62 | 17.2
[27] | -6.03 | -1.57 | 0.93 | 8.01 | 8.35
[28] | 4.45 | 8.77 | 17.6 | 24.9 | 37.5

Details | drug sensitivity score
[2] | 0.23
[3] | 0
[4] | 0.7
[5] | 0.91
[6] | 0
[7] | 0
[8] | 1.33
[9] | 1
[10] | 0
[11] | 0.48
[12] | 1.85
[13] | 0.8
[14] | 0
[15] | 7.2
